pKi: −log10 of the molar value. Where a name gives a salt, the structure may show the parent alone.
Legend:
hCA IX = molecular target: T1, hCA IX (Homo sapiens, UniProt Q16790); assay: stopped flow CO2 hydrase assay, CA IX; format: biochemical; details: for Selectivity index (SI) CA I/CA IX / Selectivity index (SI) CA II/CA IX: ratio between KI values; for pKi: stopped flow CO2 hydrase assay, mean from 3 different assays, errors ±5–10%
T1 construct: made in house
Description: (§1) An Applied Photophysics stopped-flow instrument was used for assaying the CA catalyzed CO2 hydration activity. Phenol red (at a concentration of 0.2 mM) was used as an indicator, working at the absorbance maximum of 557 nm, with 20 mM HEPES (pH 7.5) as buffer, and 20 mM Na2SO4 (for maintaining constant the ionic strength), following the initial rates of the CA-catalyzed CO2 hydration reaction for a period of 10–100 s. The CO2 concentrations ranged from 1.7 to 17 mM for the determination of the kinetic parameters and inhibition constants. For each inhibitor, at least six traces of the initial 5–10% of the reaction were used for determining the initial velocity. The uncatalyzed rates were determined in the same manner and subtracted from the total observed rates. Stock solutions of inhibitor (0.1 mM) were prepared in distilled–deionized water, and dilutions up to 0.01 nM were done thereafter with the assay buffer. Inhibitor and enzyme solutions were preincubated together for 45 min at room temperature prior to assay in order to allow for the formation of the E–I complex. The inhibition constants were obtained by non-linear least-squares methods using PRISM 3 and the Cheng–Prusoff equation, as reported earlier, representing the mean from at least three different determinations. […] All CA isoforms were recombinant ones obtained in-house, as reported earlier.

hCA IV = molecular target: T2, hCA IV (Homo sapiens, UniProt P22748); assay: stopped flow CO2 hydrase assay, CA IV; format: biochemical; details: mean from 3 different assays, errors ±5–10%
T2 construct: made in house
Description: as §1

hCA II = molecular target: T3, hCA II (Homo sapiens, UniProt P00918); assay: stopped flow CO2 hydrase assay, CA II; format: biochemical; details: mean from 3 different assays, errors ±5–10%
T3 construct: made in house
Description: as §1

hCA XII = molecular target: T4, hCA XII (Homo sapiens, UniProt O43570); assay: stopped flow CO2 hydrase assay, CA XII; format: biochemical; details: for Selectivity index (SI) CA I/CA XII / Selectivity index (SI) CA II/CA XII: ratio between KI values; for pKi: stopped flow CO2 hydrase assay, mean from 3 different assays, errors ±5–10%
T4 construct: made in house
Description: as §1

hCA I = molecular target: T5, hCA I (Homo sapiens, UniProt P00915); assay: stopped flow CO2 hydrase assay, CA I; format: biochemical; details: mean from 3 different assays, errors ±5–10%
T5 construct: made in house
Description: as §1

T5 sequence (P00915 whole entry): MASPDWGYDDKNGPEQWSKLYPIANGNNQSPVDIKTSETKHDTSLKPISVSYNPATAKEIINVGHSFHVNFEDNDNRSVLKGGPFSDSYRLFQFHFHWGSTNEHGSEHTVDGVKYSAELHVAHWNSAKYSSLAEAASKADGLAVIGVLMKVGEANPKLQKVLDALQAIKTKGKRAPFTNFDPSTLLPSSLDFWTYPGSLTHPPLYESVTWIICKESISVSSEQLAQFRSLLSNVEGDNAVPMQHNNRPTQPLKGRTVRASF
T4 sequence (O43570 25-354): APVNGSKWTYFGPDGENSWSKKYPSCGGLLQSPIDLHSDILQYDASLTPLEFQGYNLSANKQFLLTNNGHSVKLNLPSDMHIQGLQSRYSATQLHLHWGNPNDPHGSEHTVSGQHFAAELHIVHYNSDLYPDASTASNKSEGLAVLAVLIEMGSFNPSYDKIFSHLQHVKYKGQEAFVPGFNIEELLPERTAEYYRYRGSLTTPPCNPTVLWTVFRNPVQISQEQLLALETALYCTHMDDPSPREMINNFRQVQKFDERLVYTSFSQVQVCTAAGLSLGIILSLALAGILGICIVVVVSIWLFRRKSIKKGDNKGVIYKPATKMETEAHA
T2 sequence (P22748 19-312): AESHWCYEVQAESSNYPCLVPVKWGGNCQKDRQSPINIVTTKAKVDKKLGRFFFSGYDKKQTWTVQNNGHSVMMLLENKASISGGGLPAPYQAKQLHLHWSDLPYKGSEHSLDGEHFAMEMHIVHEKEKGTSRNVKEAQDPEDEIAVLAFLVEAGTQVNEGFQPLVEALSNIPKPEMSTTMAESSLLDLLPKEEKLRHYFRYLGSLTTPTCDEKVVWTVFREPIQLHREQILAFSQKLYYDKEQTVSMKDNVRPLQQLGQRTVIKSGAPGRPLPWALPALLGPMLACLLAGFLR

| Selectivity index (SI) CA I/CA IX (hCA IX) | Selectivity index (SI) CA II/CA IX (hCA IX) | pKi (hCA IX) | pKi (hCA IV) | pKi (hCA II) | Selectivity index (SI) CA I/CA XII (hCA XII) | Selectivity index (SI) CA II/CA XII (hCA XII) | pKi (hCA XII) | melting point [°C] | pKi (hCA I) | Molecule |
| --- | --- | --- | --- | --- | --- | --- | --- | --- | --- | --- |
| 1.8 | 0.02 | 7.35 | 7.42 | 9.05 | 1.7 | 0.02 | 7.32 | 290 to 293 | 7.08 | NS(=O)(=O)c1ccc(OCc2cn(CCCS(=O)(=O)[O-])nn2)cc1.[Na+] [Compound 31, Sodium 3-(4-((4-sulfamoylphenoxy)methyl)-1H-1,2,3-triazol-1-yl)propane-1-sulfonate] |
| 167 | 0.12 | 7.26 | 6.49 | 8.18 | 194 | 0.14 | 7.33 | > 300 | 5.04 | CCC(=O)Nc1cc(S(N)(=O)=O)ccc1OCc1cn(CCCS(=O)(=O)[O-])nn1.[Na+] [Compound 40, Sodium 3-(4-((2-propionamido-4-sulfamoylphenoxy)methyl)-1H-1,2,3-triazol-1-yl)propane-1-sulfonate] |
|  |  | 8.06 | 6.25 | 8.24 |  |  | 7.50 |  | 7.20 | Sodium 3-(4-((3-(4-sulfamoylphenyl)thioureido)methyl)-1H-1,2,3-triazol-1-yl)butane-1-sulfonate [Compound 48] |
|  | 0.42 | 7.29 | 7.11 | 7.67 | 8.5 | 2.2 | 8.03 | 230 to 232 | 7.10 | NS(=O)(=O)c1ccc(NC(=S)NCc2cn(CCCS(=O)(=O)[O-])nn2)cc1.[Na+] [Compound 37, Sodium 3-(4-((3-(4-sulfamoylphenyl)thioureido)methyl)-1H-1,2,3-triazol-1-yl)propane-1-sulfonate] |
| 3.3 | 0.44 | 7.29 | 6.19 | 7.65 | 5.2 | 0.70 | 7.49 |  | 6.77 | Sodium 3-(4-((4-sulfamoylbenzamido)methyl)-1H-1,2,3-triazol-1-yl)butane-1-sulfonate [Compound 44] |
|  |  |  |  |  |  |  |  | > 300 |  | CC(=O)Nc1cc(S(N)(=O)=O)ccc1OCc1cn(CCCCS(=O)(=O)O)nn1 (as salt: sodium) [Compound 50] |
| 2.3 | 0.09 | 7.44 | 6.37 | 8.49 | 12 | 0.48 | 8.17 | > 300 | 7.08 | NS(=O)(=O)c1ccc(-c2cn(CCCS(=O)(=O)[O-])nn2)cc1.[Na+] [Compound 30, Sodium 3-(4-(4-sulfamoylphenyl)-1H-1,2,3-triazol-1-yl)propane-1-sulfonate] |
| 1.0 | 0.01 | 6.34 | 7.37 | 8.38 | 1.1 | 0.01 | 6.36 | > 300 | 6.34 | NS(=O)(=O)c1ccc(NCc2cn(CCCS(=O)(=O)[O-])nn2)cc1.[Na+] [Compound 32, Sodium 3-(4-(((4-sulfamoylphenyl)amino)methyl)-1H-1,2,3-triazol-1-yl)propane-1-sulfonate] |
|  |  | 7.17 | 6.33 | 7.38 |  |  | 7.19 |  | 7.08 | Sodium 3-(4-((3-(4-sulfamoylphenethyl)ureido)methyl)-1H-1,2,3-triazol-1-yl)butane-1-sulfonate [Compound 47] |
|  |  | 7.49 | 5.34 | 7.73 |  |  | 7.27 |  | 7.04 | Sodium 3-(4-((4-(3-(4-sulfamoylphenyl)ureido)phenoxy)methyl)-1H-1,2,3-triazol-1-yl)butane-1-sulfonate [Compound 49] |
|  |  |  |  |  |  |  |  | > 300 |  | CCC(=O)Nc1cc(S(N)(=O)=O)ccc1OCc1cn(CCCCS(=O)(=O)O)nn1 (as salt: sodium) [Compound 51] |
|  |  |  |  |  |  |  |  | 235 to 238 |  | C#CCNC(=S)Nc1ccc(S(N)(=O)=O)cc1 [Compound 29] |
| 1.3 | 0.11 | 6.43 | 6.82 | 7.39 | 14 | 1.2 | 7.47 |  | 6.30 | Sodium 3-(4-((3-(4-sulfamoylphenyl)ureido)methyl)-1H-1,2,3-triazol-1-yl)butane-1-sulfonate [Compound 45] |
| 1.6 | 0.49 | 7.22 | 6.12 | 7.53 | 4.1 | 1.2 | 7.64 |  | 7.01 | Sodium 3-(4-((4-sulfamoylphenoxy)methyl)-1H-1,2,3-triazol-1-yl)butane-1-sulfonate [Compound 42] |
|  | 3.2 | 7.08 | 5.45 | 6.58 |  | 6.5 | 7.39 |  | 5.11 | CC(=O)Nc1cc(S(N)(=O)=O)ccc1OCc1cn(CCCCS(=O)(=O)O)nn1 [Compound 50] |
| 11 | 1.9 | 7.14 | 7.30 | 6.86 | 49 | 8.4 | 7.79 | 295 to 297 | 6.09 | NS(=O)(=O)c1ccc(CNC(=O)NCc2cn(CCCS(=O)(=O)[O-])nn2)cc1.[Na+] [Compound 35, Sodium 3-(4-((3-(4-sulfamoylbenzyl)ureido)methyl)-1H-1,2,3-triazol-1-yl)propane-1-sulfonate] |
|  |  | 6.63 | < 5.00 | 7.40 |  |  | 8.14 |  | 5.44 | CCC(=O)Nc1cc(S(N)(=O)=O)ccc1OCc1cn(CCCCS(=O)(=O)O)nn1 [Compound 51] |
| 0.3 | 0.15 | 6.55 | 6.06 | 7.37 | 8.8 | 4.9 | 8.06 | 217 to 219 | 7.11 | NS(=O)(=O)c1ccc(CCNC(=O)NCc2cn(CCCS(=O)(=O)[O-])nn2)cc1.[Na+] [Compound 36, Sodium 3-(4-((3-(4-sulfamoylphenethyl)ureido)methyl)-1H-1,2,3-triazol-1-yl)propane-1-sulfonate] |
|  |  | 6.88 | 6.20 | 6.48 |  |  | 7.50 |  | 6.19 | Sodium 3-(4-((3-(4-sulfamoylbenzyl)ureido)methyl)-1H-1,2,3-triazol-1-yl)butane-1-sulfonate [Compound 46] |

From publication PMC8745330, “Aromatic Sulfonamides including a Sulfonic Acid Tail: New Membrane Impermeant Carbonic Anhydrase Inhibitors for Targeting Selectively the Cancer-Associated Isoforms” (International Journal of Molecular Sciences, 2021)
